This note sets out measurements from ChEMBL document CHEMBL5291721, “A preclinical secondary pharmacology resource illuminates target-adverse drug reaction associations of marketed drugs” (Nat Commun, 2023).

Experiment [1] concerns the target T1, Neuropeptide Y receptor type 1 (Homo sapiens, UniProt P25929).
T1 sequence (P25929 whole entry): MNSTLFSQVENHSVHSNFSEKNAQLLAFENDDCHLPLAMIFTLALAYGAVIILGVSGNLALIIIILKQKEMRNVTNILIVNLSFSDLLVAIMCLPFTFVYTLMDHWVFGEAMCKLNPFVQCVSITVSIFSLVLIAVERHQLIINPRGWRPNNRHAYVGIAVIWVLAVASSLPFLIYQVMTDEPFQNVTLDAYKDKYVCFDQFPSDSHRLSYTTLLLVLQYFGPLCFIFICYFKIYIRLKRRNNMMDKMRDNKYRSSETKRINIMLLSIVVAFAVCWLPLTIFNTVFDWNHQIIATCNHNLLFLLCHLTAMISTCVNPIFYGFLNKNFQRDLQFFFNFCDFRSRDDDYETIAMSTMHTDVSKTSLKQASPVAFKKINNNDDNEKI

The target of another experiment is D(3) dopamine receptor (Homo sapiens, UniProt P35462).
Sequence of D(3) dopamine receptor (P35462 whole entry): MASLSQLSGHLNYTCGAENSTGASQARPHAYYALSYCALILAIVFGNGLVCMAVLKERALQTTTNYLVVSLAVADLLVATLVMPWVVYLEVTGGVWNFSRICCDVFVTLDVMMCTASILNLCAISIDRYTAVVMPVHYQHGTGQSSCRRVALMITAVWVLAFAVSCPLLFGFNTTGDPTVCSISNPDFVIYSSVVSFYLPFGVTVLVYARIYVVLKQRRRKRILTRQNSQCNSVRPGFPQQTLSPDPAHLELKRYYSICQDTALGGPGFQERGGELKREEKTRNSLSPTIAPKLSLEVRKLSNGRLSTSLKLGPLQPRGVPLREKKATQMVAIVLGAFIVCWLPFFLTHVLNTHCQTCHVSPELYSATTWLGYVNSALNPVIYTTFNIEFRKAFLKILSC
The target of experiment [2] is T2, Equilibrative nucleoside transporter 1 (Homo sapiens, UniProt Q99808).
T2 sequence (Q99808 whole entry): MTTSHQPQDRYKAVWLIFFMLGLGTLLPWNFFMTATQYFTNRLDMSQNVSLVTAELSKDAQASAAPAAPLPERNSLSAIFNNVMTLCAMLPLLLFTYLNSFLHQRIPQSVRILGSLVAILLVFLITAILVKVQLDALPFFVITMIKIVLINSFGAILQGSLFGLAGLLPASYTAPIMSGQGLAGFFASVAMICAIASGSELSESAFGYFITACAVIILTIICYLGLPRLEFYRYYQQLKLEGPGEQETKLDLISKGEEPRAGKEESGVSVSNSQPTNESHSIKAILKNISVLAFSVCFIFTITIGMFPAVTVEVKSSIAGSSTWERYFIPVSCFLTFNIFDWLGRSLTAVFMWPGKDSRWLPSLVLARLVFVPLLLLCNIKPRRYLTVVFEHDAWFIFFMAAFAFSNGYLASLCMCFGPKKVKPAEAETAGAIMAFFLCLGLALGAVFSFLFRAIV

Experiment [3] addresses T3, 5-hydroxytryptamine receptor 2B (Homo sapiens, UniProt P41595). It counts as functional, cell-based.
Experiment [4] concerns the target Kappa-type opioid receptor (Homo sapiens, UniProt P41145).
Experiment [5] concerns the target T3, 5-hydroxytryptamine receptor 2B. It counts as functional, cell-based. This is another data set of the same source.
Experiment [6] addresses Beta-1 adrenergic receptor (Homo sapiens, UniProt P08588). It counts as functional.
Experiment [7] deals with T4, Alpha-2C adrenergic receptor (Homo sapiens, UniProt P18825).
T4 sequence (P18825 whole entry): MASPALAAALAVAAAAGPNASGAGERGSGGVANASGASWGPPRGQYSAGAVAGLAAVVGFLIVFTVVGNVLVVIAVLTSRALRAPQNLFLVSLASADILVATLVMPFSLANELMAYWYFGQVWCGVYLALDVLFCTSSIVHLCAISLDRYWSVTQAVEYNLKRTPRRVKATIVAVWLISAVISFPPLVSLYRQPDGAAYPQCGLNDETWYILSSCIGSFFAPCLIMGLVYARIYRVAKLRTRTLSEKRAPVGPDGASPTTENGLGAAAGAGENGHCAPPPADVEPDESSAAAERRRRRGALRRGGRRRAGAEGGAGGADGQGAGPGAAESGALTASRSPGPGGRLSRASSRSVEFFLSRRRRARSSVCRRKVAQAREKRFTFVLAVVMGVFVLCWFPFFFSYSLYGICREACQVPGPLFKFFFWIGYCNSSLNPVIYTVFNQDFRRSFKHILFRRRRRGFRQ
It counts as functional.

In experiment [8] the target is cGMP-inhibited 3',5'-cyclic phosphodiesterase 3A (Homo sapiens, UniProt Q14432). It counts as functional.
Sequence of cGMP-inhibited 3',5'-cyclic phosphodiesterase 3A (Q14432 whole entry): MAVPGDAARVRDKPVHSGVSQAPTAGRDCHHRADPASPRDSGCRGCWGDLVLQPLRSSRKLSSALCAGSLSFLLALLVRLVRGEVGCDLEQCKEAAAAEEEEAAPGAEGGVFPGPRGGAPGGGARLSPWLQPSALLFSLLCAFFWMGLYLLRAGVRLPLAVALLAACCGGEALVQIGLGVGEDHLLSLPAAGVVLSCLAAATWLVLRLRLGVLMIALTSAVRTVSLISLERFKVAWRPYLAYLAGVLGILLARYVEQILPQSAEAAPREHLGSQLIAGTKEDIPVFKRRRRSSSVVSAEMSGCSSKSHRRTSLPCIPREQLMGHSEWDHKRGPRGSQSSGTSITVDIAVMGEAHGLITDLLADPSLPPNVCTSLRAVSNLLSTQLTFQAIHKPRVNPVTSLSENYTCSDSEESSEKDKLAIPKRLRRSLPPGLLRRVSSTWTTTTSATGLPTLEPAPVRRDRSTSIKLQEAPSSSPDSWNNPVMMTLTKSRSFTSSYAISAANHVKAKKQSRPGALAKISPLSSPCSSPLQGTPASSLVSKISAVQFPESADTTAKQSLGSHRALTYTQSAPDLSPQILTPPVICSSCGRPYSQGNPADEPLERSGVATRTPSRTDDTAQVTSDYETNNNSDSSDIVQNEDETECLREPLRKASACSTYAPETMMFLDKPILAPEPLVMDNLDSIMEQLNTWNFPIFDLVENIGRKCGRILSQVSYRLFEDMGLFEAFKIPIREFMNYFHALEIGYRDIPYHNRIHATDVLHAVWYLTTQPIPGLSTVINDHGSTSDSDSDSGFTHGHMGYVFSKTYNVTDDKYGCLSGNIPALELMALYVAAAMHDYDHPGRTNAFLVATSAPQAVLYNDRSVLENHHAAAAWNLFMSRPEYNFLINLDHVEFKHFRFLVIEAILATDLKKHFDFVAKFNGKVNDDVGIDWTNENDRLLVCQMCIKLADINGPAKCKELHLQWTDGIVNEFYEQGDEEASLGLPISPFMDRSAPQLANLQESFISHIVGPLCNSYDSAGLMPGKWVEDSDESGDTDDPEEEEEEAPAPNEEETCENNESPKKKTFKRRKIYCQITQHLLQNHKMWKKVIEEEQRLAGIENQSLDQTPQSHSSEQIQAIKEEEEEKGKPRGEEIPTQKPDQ
The target in experiment [9] is Voltage-gated inwardly rectifying potassium channel KCNH2 (Homo sapiens, UniProt Q12809). It counts as functional. As to conditions: read-out: AC50.
Sequence of Voltage-gated inwardly rectifying potassium channel KCNH2 (Q12809 whole entry): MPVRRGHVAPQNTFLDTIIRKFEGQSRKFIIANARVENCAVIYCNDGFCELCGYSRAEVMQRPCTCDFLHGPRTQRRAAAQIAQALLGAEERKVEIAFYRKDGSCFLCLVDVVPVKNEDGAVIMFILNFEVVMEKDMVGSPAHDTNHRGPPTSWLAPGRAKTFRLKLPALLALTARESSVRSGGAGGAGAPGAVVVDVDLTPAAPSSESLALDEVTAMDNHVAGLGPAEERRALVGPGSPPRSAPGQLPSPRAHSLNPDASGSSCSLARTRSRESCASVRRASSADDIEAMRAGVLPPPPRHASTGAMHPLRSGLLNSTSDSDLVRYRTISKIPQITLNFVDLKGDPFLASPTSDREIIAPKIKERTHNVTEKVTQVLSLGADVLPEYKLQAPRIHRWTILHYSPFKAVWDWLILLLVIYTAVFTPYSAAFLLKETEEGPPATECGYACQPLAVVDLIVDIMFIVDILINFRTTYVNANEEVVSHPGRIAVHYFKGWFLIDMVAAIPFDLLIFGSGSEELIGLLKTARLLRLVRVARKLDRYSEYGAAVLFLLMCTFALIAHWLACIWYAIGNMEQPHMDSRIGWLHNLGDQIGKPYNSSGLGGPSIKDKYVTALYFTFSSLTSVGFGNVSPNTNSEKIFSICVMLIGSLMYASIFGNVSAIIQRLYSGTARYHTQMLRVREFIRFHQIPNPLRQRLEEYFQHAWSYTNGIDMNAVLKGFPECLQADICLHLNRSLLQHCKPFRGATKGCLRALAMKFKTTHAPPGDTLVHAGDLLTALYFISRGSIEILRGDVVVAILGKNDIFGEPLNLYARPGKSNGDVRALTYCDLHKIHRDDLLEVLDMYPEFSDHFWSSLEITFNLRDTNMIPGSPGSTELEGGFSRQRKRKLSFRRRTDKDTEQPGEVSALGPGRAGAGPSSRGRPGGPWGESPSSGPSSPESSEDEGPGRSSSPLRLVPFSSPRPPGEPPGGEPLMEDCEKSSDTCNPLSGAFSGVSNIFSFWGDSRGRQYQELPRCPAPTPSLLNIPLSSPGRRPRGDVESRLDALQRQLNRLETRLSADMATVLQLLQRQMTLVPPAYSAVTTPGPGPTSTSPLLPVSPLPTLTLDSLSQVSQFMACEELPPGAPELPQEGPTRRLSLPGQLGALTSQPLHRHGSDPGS
Also: assay procedure not described here.

Sequence of Kappa-type opioid receptor (P41145 whole entry): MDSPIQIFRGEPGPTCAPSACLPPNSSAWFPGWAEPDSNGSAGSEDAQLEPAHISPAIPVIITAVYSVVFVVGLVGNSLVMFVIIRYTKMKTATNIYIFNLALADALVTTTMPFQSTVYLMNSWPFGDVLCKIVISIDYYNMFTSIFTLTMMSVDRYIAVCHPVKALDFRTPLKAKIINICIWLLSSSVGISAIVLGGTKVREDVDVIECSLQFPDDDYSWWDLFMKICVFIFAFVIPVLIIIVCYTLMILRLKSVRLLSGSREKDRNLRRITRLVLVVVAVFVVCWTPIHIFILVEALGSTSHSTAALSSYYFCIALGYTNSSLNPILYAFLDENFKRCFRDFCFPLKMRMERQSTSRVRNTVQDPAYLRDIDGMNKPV
T3 sequence (P41595 whole entry): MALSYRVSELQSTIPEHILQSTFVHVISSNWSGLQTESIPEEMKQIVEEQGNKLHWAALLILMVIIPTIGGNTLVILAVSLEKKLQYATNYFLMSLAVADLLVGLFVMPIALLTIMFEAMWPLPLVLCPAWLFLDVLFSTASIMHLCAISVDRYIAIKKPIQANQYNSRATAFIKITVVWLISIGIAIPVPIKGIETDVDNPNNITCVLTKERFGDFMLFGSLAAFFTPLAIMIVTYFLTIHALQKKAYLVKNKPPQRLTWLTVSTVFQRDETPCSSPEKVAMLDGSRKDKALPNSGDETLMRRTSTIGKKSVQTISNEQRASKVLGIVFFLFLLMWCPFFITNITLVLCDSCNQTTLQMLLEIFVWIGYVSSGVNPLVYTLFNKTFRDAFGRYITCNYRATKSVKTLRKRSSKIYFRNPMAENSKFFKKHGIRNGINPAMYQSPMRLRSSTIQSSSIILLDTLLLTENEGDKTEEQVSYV
Sequence of Beta-1 adrenergic receptor (P08588 whole entry): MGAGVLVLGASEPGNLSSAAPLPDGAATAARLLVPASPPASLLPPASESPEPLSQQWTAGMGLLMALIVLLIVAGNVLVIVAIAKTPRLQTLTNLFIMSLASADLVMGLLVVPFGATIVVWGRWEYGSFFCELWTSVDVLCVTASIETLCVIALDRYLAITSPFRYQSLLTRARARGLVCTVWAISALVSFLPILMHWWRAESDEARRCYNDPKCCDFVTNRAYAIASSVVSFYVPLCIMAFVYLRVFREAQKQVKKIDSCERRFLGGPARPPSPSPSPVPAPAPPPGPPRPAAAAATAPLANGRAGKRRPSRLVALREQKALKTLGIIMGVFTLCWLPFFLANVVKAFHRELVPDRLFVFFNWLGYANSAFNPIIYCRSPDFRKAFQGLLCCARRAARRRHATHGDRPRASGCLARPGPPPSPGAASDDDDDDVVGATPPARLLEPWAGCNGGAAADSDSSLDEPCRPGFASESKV

As to `COc1ccc(/C=C/C(=O)Nc2ccccc2C(=O)O)cc1OC`, the AC50 (in [1]; on D(3) dopamine receptor; in experiment [2]; in [3]; in experiment [4]; in [5]) was > 30 µM throughout. Also, the AC50 in experiment [6] was > 30 µM; in experiment [7] it was > 30 µM; in experiment [8], 24 µM.

As for `NCCCC(O)(P(=O)(O)O)P(=O)(O)O` [ALENDRONIC ACID], the half-maximal activity concentration (AC50) in experiment [1] is > 30 µM; in experiment [2] it was > 30 µM; in [4], > 10 µM; in experiment [6], > 10 µM; in experiment [7] it was > 10 µM; in experiment [8], 1.09 µM.

As to `Nc1ccc(C(=O)O)c(O)c1` [AMINOSALICYLIC ACID], the concentration at half-maximal activity (AC50) (in experiment [9]; in [1]; at D(3) dopamine receptor; in experiment [3]; in experiment [4]; in experiment [5]) was > 30 µM each time. The half-maximal activity concentration (AC50) in [6], in [7] and in experiment [8] was > 30 µM each time.

In the case of `COc1cc(OC)c(C(=O)CCCN2CCCC2)c(OC)c1` [BUFLOMEDIL], the AC50 in experiment [9] is 2.6 µM; in experiment [1] it was > 30 µM; at D(3) dopamine receptor, > 30 µM; in experiment [2] it was > 30 µM; in experiment [3], > 30 µM; in experiment [4], 4.3 µM. The AC50 in experiment [5] is > 30 µM; in experiment [6], > 30 µM; in experiment [7], 13 µM; in experiment [8] it was > 30 µM.

For the compound `CS(=O)(=O)OCCCCOS(C)(=O)=O` [BUSULFAN], the AC50 (in [9]; in [1]; on D(3) dopamine receptor; in experiment [2]; in [3]; in [4]) was > 30 µM each time. Moreover, the AC50 in experiment [5], in [6], in experiment [7] and in experiment [8] was > 30 µM in each case.

Consider `CCCCCCNC(=O)n1cc(F)c(=O)[nH]c1=O` [CARMOFUR], for which the AC50 (in experiment [9]; in [1]; at D(3) dopamine receptor; in [2]; in experiment [3]; in [4]) was > 30 µM each time. Moreover, the AC50 in experiment [5], in experiment [6], in [7] and in experiment [8] was > 30 µM each time.

As to `CC(C)(C)NCC(O)c1cc(Cl)c(N)c(Cl)c1` (stereo not drawn) [CLENBUTEROL], the AC50 was > 30 µM in experiment [9]; > 30 µM in [1]; > 30 µM at D(3) dopamine receptor; > 30 µM in [2]; > 30 µM in experiment [3]; 28 µM in [4]. The AC50 was > 30 µM in experiment [5], 0.112 µM in experiment [6], > 30 µM in experiment [7] and > 30 µM in experiment [8].

As for `COc1cccc2c1C(=O)c1c(O)c3c(c(O)c1C2=O)C[C@@](O)(C(C)=O)C[C@@H]3O[C@H]1C[C@H](N)[C@H](O)[C@H](C)O1` [DAUNORUBICIN], the AC50 is > 30 µM in [9]; > 10 µM in experiment [1]; 17.9 µM at D(3) dopamine receptor; 14.3 µM in [2]; > 30 µM in experiment [4]; 28 µM in experiment [6]. Moreover, the AC50 in experiment [7] was 17.5 µM; in experiment [8], > 30 µM.

With `CC(=O)OCC(CCn1cnc2cnc(N)nc21)COC(C)=O` [FAMCICLOVIR], the half-maximal activity concentration (AC50) in experiment [9] was > 30 µM; in experiment [1] it was > 30 µM; on D(3) dopamine receptor, > 10 µM; in experiment [2] it was > 30 µM; in experiment [3] it was > 10 µM; in [4], > 10 µM. The AC50 in experiment [5] is > 10 µM; in experiment [6], > 10 µM; in [7] it was > 10 µM; in experiment [8] it was > 30 µM.

`Nc1ccn([C@@H]2O[C@H](CO)[C@@H](O)C2(F)F)c(=O)n1` [GEMCITABINE]: the AC50 is > 30 µM in experiment [9]; > 30 µM in [1]; > 30 µM at D(3) dopamine receptor; > 10 µM in experiment [3]; > 10 µM in experiment [4]; > 10 µM in experiment [5]. For the same compound, the concentration at half-maximal activity (AC50) in experiment [6] was > 30 µM; in experiment [7] it was > 10 µM; in experiment [8], 11 µM.

Regarding `COC1=C(OC)C(=O)C(CCCCCCCCCCO)=C(C)C1=O` [IDEBENONE], the concentration at half-maximal activity (AC50) in experiment [9] was > 30 µM; in [1], > 30 µM; on D(3) dopamine receptor, > 10 µM; in experiment [2], 21.9 µM; in [3] it was > 10 µM; in [4], > 10 µM. In addition, the AC50 in [5] is > 10 µM; in experiment [6], > 10 µM; in [7] it was > 10 µM; in experiment [8], 6.4 µM.

`Nc1nc2c(c(=O)[nH]1)N(C=O)C(CNc1ccc(C(=O)N[C@@H](CCC(=O)O)C(=O)O)cc1)CN2` (stereo partly drawn) [LEUCOVORIN]: the half-maximal activity concentration (AC50) (in experiment [9]; in experiment [1]; at D(3) dopamine receptor; in [2]; in experiment [3]; in experiment [4]) was > 30 µM each time. The AC50 in experiment [5], in experiment [6], in [7] and in experiment [8] was > 30 µM throughout.

For the compound `CCn1cc(C(=O)O)c(=O)c2cc(F)c(N3CCN(C)CC3)cc21` [PEFLOXACIN], the AC50 in experiment [1] was > 30 µM; at D(3) dopamine receptor, 3.6 µM; in experiment [2] it was > 30 µM; in [3], > 30 µM; in [5] it was > 30 µM; in experiment [6], > 30 µM. Moreover, the half-maximal activity concentration (AC50) in [7] and in [8] was > 30 µM throughout.

For the compound `C[n+]1ccccc1/C=N/O` [PRALIDOXIME], the AC50 (in experiment [9]; on D(3) dopamine receptor; in experiment [3]; in [4]; in experiment [5]; in experiment [7]) was > 30 µM in each case. The AC50 in experiment [8] was > 30 µM.

Consider `CC(C)CC(N(C)C)C1(c2ccc(Cl)cc2)CCC1` (stereo not drawn) [SIBUTRAMINE], for which the half-maximal activity concentration (AC50) in [9] was 8.34 µM; in experiment [1], > 30 µM; on D(3) dopamine receptor it was > 10 µM; in experiment [2], > 30 µM; in [6], > 10 µM; in [7], 3.8 µM. Also, in [8], the AC50 was > 30 µM.

On to `CC(C)(C)NC[C@H](O)COc1nsnc1N1CCOCC1` [TIMOLOL], for which the AC50 (in experiment [9]; in experiment [1]; at D(3) dopamine receptor; in experiment [2]; in experiment [3]; in [4]) was > 30 µM each time. In addition, the AC50 in [5], in experiment [7] and in experiment [8] was > 30 µM throughout.

In the case of `CN1[C@@H]2CC[C@H]1C[C@@H](OC(=O)c1c[nH]c3ccccc13)C2` [TROPISETRON], the concentration at half-maximal activity (AC50) in experiment [9] is 0.95 µM; in experiment [1], > 30 µM; on D(3) dopamine receptor it was > 30 µM; in experiment [3], > 30 µM; in [4] it was > 30 µM; in experiment [5], 15 µM. Moreover, the AC50 in [6] is > 30 µM; in [7], 27 µM; in experiment [8] it was > 30 µM.

On to `COc1ccc(C(CN(C)C)C2(O)CCCCC2)cc1` (stereo not drawn) [VENLAFAXINE], for which the AC50 in experiment [9] was > 30 µM; in [1], > 30 µM; in experiment [2] it was > 30 µM; in [4], > 10 µM; in [6], > 10 µM; in experiment [7], > 10 µM. The AC50 in experiment [8] was > 10 µM.
